Results from ChEMBL document CHEMBL1140148, “Structure-activity studies on a series of a 2-aminopyrimidine-containing histamine H4 receptor ligands” (J Med Chem, 2008).
In brackets after ≈: the same amount, converted by molar mass. Activity calls are given as the source filed them. No cut-off for these calls is given here.

Key:
[1] = test system: Rattus norvegicus; experiment: Plasma concentration in rat at 30 umol/kg, ip; assay type: ADME, organism-based; conditions: in vivo
[2] = test system: Rattus norvegicus; experiment: Plasma concentration in rat at 100 umol/kg, ip; assay type: ADME, organism-based; conditions: in vivo
[3] = Protein binding in ip dosed rat plasma; assay type: ADME, organism-based; conditions: read-out: PPB (converted)
[4] = species: Rattus norvegicus; experiment: Antiinflammatory activity against carrageenan-induced hyperalgesia in rat assessed as increase in paw withdrawal by measuring plasma free fraction potency; assay type: functional, organism-based
[5] = Inhibition of adrenergic alpha2 receptor at 10 umol
[6] = target: 5-hydroxytryptamine receptor 1A (Homo sapiens) (UniProt P08908); experiment: Inhibition of 5HT1A receptor at 10 umol
Chain of 5-hydroxytryptamine receptor 1A (Homo sapiens) (P08908 whole entry): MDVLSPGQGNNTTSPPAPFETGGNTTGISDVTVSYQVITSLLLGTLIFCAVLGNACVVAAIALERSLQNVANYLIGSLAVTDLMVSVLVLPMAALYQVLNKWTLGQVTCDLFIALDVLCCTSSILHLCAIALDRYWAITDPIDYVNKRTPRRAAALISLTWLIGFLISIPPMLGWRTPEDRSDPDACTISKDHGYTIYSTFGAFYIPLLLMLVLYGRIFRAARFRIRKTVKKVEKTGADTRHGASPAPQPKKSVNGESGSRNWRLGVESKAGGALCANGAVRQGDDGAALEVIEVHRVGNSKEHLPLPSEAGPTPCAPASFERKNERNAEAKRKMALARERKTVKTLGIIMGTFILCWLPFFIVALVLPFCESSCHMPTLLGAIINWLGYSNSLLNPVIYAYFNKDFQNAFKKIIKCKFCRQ

[7] = target: 5-hydroxytryptamine receptor 1B (Homo sapiens) (UniProt P28222); experiment: Inhibition of 5HT1B receptor at 10 umol
Chain of 5-hydroxytryptamine receptor 1B (Homo sapiens) (P28222 whole entry): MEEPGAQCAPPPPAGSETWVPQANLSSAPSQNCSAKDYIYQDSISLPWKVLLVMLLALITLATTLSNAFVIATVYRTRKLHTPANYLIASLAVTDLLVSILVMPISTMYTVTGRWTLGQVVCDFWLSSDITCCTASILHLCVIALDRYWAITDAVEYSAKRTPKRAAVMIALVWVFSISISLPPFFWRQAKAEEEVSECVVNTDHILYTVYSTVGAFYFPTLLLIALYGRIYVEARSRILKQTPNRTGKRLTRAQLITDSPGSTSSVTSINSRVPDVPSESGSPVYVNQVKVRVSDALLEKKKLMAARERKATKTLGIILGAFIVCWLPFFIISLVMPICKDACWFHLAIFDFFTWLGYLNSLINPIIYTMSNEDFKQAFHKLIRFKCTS

[8] = target: T1, 5-hydroxytryptamine receptor 2A (Homo sapiens, UniProt P28223); experiment: Inhibition of 5HT2A receptor at 10 umol
T1 sequence (P28223 whole entry): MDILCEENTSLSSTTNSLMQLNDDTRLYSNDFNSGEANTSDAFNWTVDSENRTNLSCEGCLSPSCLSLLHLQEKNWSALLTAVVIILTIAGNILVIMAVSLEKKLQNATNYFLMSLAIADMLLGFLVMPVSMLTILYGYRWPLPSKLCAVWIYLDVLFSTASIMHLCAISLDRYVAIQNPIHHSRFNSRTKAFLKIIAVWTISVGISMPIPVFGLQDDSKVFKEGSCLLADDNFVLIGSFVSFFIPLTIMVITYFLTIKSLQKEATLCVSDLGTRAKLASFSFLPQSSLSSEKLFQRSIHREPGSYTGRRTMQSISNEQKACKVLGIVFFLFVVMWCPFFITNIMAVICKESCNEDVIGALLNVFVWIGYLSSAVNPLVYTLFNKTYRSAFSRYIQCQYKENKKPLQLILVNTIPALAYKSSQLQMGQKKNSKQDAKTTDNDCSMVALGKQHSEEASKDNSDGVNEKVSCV

[9] = target: T2, 5-hydroxytryptamine receptor 7 (Homo sapiens, UniProt P34969); experiment: Inhibition of 5HT7 receptor at 10 umol
T2 sequence (P34969 whole entry): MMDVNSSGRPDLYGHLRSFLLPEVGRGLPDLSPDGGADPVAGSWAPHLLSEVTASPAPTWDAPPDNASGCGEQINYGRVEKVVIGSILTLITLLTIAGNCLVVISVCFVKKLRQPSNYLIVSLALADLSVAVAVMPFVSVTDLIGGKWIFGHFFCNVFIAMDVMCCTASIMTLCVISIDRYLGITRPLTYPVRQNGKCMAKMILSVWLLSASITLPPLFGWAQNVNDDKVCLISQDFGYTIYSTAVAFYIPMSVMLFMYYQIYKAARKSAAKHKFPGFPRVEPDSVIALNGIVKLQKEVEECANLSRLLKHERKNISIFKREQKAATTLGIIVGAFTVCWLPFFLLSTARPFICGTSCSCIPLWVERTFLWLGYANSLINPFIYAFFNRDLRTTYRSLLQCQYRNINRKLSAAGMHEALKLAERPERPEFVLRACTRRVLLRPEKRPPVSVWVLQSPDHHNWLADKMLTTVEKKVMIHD

[10] = target: T3, 5-hydroxytryptamine receptor 1A (Homo sapiens, UniProt P08908); experiment: Binding affinity to 5HT1A receptor
T3 sequence (P08908 whole entry): as the sequence (P08908 whole entry) above

[11] = target: 5-hydroxytryptamine receptor 1D (Homo sapiens, UniProt P28221); experiment: Binding affinity to 5HT1D receptor
Chain of 5-hydroxytryptamine receptor 1D (P28221 whole entry): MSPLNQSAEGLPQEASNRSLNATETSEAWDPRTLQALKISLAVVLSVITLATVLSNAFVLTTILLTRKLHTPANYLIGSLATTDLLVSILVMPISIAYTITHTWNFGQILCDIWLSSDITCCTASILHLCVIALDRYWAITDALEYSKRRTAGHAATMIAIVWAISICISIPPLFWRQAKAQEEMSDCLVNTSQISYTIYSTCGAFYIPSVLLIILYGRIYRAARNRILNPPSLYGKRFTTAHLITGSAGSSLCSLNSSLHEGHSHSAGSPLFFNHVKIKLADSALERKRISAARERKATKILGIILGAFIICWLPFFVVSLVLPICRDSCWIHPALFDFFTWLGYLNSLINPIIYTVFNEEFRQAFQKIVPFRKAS

[12] = target: T1, 5-hydroxytryptamine receptor 2A; experiment: Binding affinity to 5HT2A receptor
[13] = target: 5-hydroxytryptamine receptor 2C (Homo sapiens, UniProt P28335); experiment: Binding affinity to 5HT2C receptor
Chain of 5-hydroxytryptamine receptor 2C (P28335 whole entry): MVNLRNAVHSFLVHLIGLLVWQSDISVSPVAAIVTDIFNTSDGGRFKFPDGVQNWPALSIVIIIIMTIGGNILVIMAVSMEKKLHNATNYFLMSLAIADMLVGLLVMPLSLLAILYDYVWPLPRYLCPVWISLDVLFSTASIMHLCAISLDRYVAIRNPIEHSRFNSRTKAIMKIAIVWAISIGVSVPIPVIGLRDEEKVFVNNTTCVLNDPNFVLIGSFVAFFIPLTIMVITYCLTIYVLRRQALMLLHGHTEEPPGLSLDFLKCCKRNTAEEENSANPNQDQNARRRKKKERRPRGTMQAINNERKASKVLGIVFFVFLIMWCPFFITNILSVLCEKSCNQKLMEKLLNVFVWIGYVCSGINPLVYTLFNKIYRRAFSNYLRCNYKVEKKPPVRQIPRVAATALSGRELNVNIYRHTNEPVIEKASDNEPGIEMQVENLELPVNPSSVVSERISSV

[14] = target: T2, 5-hydroxytryptamine receptor 7; experiment: Binding affinity to 5HT7 receptor
[15] = target: Alpha-2A adrenergic receptor (Homo sapiens, UniProt P08913); experiment: Binding affinity to adrenergic alpha2A receptor
Chain of Alpha-2A adrenergic receptor (P08913 whole entry): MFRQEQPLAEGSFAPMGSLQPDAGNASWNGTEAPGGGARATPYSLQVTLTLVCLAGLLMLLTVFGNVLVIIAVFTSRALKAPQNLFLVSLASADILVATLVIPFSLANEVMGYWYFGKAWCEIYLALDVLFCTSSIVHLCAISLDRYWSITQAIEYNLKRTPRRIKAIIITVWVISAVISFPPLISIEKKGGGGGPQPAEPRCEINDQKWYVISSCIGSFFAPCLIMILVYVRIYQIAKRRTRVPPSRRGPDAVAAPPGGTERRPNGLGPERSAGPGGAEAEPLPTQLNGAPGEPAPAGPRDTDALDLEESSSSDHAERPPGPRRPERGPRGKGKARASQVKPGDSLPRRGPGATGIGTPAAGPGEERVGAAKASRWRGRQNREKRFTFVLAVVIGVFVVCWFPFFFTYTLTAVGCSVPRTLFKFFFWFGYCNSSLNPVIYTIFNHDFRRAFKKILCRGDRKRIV

[16] = target: Alpha-2C adrenergic receptor (Homo sapiens, UniProt P18825); experiment: Binding affinity to adrenergic Alpha-2C receptor
Chain of Alpha-2C adrenergic receptor (P18825 whole entry): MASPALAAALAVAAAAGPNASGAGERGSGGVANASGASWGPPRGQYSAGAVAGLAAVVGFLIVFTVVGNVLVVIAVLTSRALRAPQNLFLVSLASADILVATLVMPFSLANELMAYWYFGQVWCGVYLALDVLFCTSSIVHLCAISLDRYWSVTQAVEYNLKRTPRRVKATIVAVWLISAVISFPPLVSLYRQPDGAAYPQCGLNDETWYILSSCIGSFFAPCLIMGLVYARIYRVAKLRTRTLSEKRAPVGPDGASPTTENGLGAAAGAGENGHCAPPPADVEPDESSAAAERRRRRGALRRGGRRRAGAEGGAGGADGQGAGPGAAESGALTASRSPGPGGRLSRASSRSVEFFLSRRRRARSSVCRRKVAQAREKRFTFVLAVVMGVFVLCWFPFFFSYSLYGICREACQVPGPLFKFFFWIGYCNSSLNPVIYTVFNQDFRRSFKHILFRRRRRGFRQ

[17] = Binding affinity to opioid receptor
[18] = Binding affinity to cyclooxygenase
[19] = target: P2X purinoceptor 7 (Homo sapiens, UniProt Q99572); experiment: Binding affinity to human P2X7 channel
[20] = target: P2X purinoceptor 7 (Mus musculus, UniProt Q9Z1M0); experiment: Binding affinity to mouse P2X7 channel
[21] = Binding affinity to T-type voltage gated calcium channel
[22] = Binding affinity to NMDA receptor
[23] = test system: Rattus norvegicus; experiment: Toxicity in rat assessed as effect on locomotor activity by rotarod test upto 300 umol/kg; assay type: organism-based; conditions: in vivo
[24] = Binding affinity to neuronal nicotine receptor
[25] = target: Cannabinoid receptor 1 (Homo sapiens, UniProt P21554); experiment: Binding affinity to cannabinoid receptor
Chain of Cannabinoid receptor 1 (P21554 whole entry): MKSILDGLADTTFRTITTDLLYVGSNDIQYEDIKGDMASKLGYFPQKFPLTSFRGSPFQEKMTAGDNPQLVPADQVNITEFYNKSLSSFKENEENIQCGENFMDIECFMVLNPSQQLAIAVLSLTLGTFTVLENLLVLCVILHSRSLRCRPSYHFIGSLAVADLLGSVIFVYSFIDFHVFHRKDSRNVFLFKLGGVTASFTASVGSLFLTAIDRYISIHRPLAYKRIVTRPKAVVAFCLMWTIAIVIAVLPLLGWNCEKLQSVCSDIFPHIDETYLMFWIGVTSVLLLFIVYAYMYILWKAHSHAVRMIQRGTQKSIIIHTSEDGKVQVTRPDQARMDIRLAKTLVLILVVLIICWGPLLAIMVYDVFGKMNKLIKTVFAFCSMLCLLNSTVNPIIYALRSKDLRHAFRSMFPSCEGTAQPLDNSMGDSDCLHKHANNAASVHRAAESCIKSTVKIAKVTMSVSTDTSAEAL

[26] = target: T3, 5-hydroxytryptamine receptor 1A; experiment: Agonist activity at 5HT1A receptor expressed in CHO cells by GTPgammaS binding assay; assay type: functional, cell-based
[27] = target: 5-hydroxytryptamine receptor 1A (Homo sapiens) (UniProt P08908); experiment: Agonist activity at 5HT1A receptor expressed in CHO cells by GTPgammaS binding assay relative to serotonin; assay type: functional, cell-based
[28] = Plasma concentration in rat at 30 umol/kg, ip after 30 mins; assay type: ADME, organism-based
[29] = Drug level in rat brain at 30 umol/kg, ip after 30 mins; assay type: ADME, organism-based; conditions: read-out: Drug uptake
[30] = target: T4, Histamine H4 receptor (Rattus norvegicus, UniProt Q91ZY1); experiment: Agonist activity at rat histamine H4 receptor expressed in HEK293 cells coexpressing Gqi5 protein assessed as calcium flux by FLIPR assay; assay type: functional, cell-based
T4 sequence (Q91ZY1 whole entry): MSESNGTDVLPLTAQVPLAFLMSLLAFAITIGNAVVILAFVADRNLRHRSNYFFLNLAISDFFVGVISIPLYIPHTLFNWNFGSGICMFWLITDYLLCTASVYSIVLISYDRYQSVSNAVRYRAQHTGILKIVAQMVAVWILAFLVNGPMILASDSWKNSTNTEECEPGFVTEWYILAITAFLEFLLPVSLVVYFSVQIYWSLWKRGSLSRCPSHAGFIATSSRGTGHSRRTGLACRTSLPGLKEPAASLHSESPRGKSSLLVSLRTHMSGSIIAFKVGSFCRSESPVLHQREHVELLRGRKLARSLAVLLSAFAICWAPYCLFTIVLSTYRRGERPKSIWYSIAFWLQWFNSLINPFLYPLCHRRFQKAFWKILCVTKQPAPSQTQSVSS

[31] = Terminal volume of distribution in rat at 1 mg/kg, iv; assay type: ADME, organism-based; design: dose 1 mg/kg, route intravenous; conditions: in vivo, read-out: Vbeta
[32] = Terminal volume of distribution in mouse at 2.5 mg/kg, iv; assay type: ADME, organism-based; design: dose 2.5 mg/kg, route intravenous; conditions: in vivo, read-out: Vbeta
[33] = Plasma clearance in rat at 1 mg/kg, iv; assay type: ADME, organism-based; design: dose 1 mg/kg, route intravenous
[34] = Plasma clearance in mouse at 2.5 mg/kg, iv; assay type: ADME, organism-based; design: dose 2.5 mg/kg, route intravenous
[35] = Cmax in rat at 1 mg/kg, iv; assay type: ADME, organism-based; design: dose 1 mg/kg, route intravenous; conditions: in vivo
[36] = Cmax in mouse at 2.5 mg/kg, iv; assay type: ADME, organism-based; design: dose 2.5 mg/kg, route intravenous; conditions: in vivo
[37] = Tmax in rat at 1 mg/kg, po; assay type: ADME, organism-based; design: dose 1 mg/kg, route oral; conditions: in vivo
[38] = Tmax in mouse at 2.5 mg/kg, po; assay type: ADME, organism-based; design: dose 2.5 mg/kg, route oral; conditions: in vivo
[39] = Bioavailability in rat at 1 mg/kg, po; assay type: ADME, organism-based; conditions: in vivo
[40] = Bioavailability in mouse at 2.5 mg/kg, po; assay type: ADME, organism-based; conditions: in vivo
[41] = Cmax in rat at 1 mg/kg, po; assay type: ADME, organism-based; design: dose 1 mg/kg, route oral; conditions: in vivo
[42] = Cmax in mouse at 2.5 mg/kg, po; assay type: ADME, organism-based; design: dose 2.5 mg/kg, route oral; conditions: in vivo
[43] = Half life in mouse at 2.5 mg/kg, po; assay type: ADME, organism-based; design: dose 2.5 mg/kg, route oral; conditions: in vivo
[44] = target: Histamine H4 receptor (Mus musculus, UniProt Q91ZY2); experiment: Agonist activity at mouse histamine H4 receptor expressed in HEK293 cells coexpressing Gqi5 protein assessed as calcium flux by FLIPR assay; assay type: functional, cell-based
Chain of Histamine H4 receptor (Mus musculus, UniProt Q91ZY2) (Q91ZY2 whole entry): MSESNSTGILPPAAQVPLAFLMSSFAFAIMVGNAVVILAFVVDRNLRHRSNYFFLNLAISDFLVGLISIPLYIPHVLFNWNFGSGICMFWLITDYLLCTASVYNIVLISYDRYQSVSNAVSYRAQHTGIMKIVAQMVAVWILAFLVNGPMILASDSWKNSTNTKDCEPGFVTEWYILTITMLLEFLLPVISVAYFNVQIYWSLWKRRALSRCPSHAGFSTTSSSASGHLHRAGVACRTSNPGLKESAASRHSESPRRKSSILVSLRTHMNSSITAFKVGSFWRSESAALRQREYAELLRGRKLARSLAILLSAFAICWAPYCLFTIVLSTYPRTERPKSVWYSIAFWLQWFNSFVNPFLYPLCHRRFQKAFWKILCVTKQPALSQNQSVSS

[45] = target: Histamine H4 receptor (Mus musculus) (UniProt Q91ZY2); experiment: Agonist activity at mouse histamine H4 receptor expressed in HEK293 cells coexpressing Gqi5 protein assessed as calcium flux by FLIPR assay relative to histamine; assay type: functional, cell-based
Chain of Histamine H4 receptor (Mus musculus) (Q91ZY2 whole entry): as above

[46] = target: T4, Histamine H4 receptor; experiment: Displacement of [3H]histamine from rat histamine H4 receptor expressed in HEK293 cells; assay type: cell-based
[47] = target: Histamine H3 receptor (Homo sapiens, UniProt Q9Y5N1); experiment: Binding affinity to human histamine H3 receptor
[48] = target: Histamine H3 receptor (Rattus norvegicus, UniProt Q9QYN8); experiment: Binding affinity to rat histamine H3 receptor
[49] = test system: Mus musculus; experiment: Antiinflammatory activity in zymosan-induced peritonitis in sc dosed BALB/c mouse model assessed as decrease in myeloperoxidase activity in peritoneal lavage; assay type: functional
[50] = test system: Mus musculus; experiment: Antiinflammatory activity in ip dosed CD1/ICR mouse assessed as reduction of clobenpropit-induced itching; assay type: functional
[51] = test system: Mus musculus; experiment: Antiinflammatory activity in ip dosed CD1/ICR mouse assessed as reduction of clobenpropit-induced itching at 0.1 to 10 umol administered into scruff of neck; assay type: functional, organism-based
[52] = Plasma concentration in mouse at 25 umol/kg, ip after 30 mins; assay type: ADME, organism-based
[53] = target: T4, Histamine H4 receptor; experiment: Agonist activity at rat histamine H4 receptor expressed in HEK293 cells coexpressing Gqi5 protein by GTPgammaS assay; assay type: functional, cell-based
[54] = Inhibition of histamine-induced shape change in BALB/c mouse BMMC by gated autofluorescence forward scatter; assay type: functional
[55] = test system: Rattus norvegicus; experiment: Antiinflammatory activity against carrageenan-induced thermal hyperalgesia in rat assessed as increase in paw withdrawal at 30 umol/kg, ip relative to control; assay type: functional
[56] = test system: Rattus norvegicus; experiment: Antiinflammatory activity against carrageenan-induced thermal hyperalgesia in rat assessed as increase in paw withdrawal at 100 umol/kg, ip relative to control; assay type: functional
[57] = test system: Rattus norvegicus; experiment: Antiinflammatory activity against carrageenan-induced thermal hyperalgesia in ip dosed rat assessed as increase in paw withdrawal; assay type: functional
[58] = test system: Rattus norvegicus; experiment: Plasma concentration in carrageenan-induced rat at 10 umol/kg, ip; assay type: ADME, organism-based; conditions: in vivo

Question: Which results are given for `CN1CCN(c2cc(-c3ccc(C#N)cc3)nc(N)n2)CC1`?
Answer: Cp [1]: 836 ng/mL; Cp [2]: 2468 ng/mL; fraction unbound [3]: 0.33; EC50 [4]: 0.2 µg/mL (≈ 0.679 µM); inhibition [5]: 92%; inhibition [6]: 99%; inhibition [7]: 86%; inhibition [8]: 71%; inhibition [9]: 53%; Ki [10]: 42 nM; Ki [11]: 120 nM; Ki [12]: 4100 nM; Ki [13]: 3000 nM; Ki [14]: 5900 nM; Ki [15]: 74 nM; Ki [16]: 290 nM; IC50 [17]: > 10000 nM; IC50 [18]: > 100000 nM; IC50 [19]: > 100000 nM; IC50 [20]: > 100000 nM; IC50 [21]: > 10000 nM; IC50 [22]: > 100000 nM; Activity [23]: Non-toxic; Ki [24]: 100000 nM; Ki [25]: > 10000 nM; EC50 [26]: 1620 nM; Efficacy [27]: 92%; concentration at 0.5 h [28]: 600 ng/mL; concentration at 0.5 h [29]: 12100 ng/g; EC50 [30]: 58.9 nM; Vd [31]: 7.1 L/kg; Vd [32]: 3.9 L/kg; clearance [33]: 172 mL/min/kg; clearance [34]: 255 mL/min/kg; Cmax [35]: 160 ng/mL; Cmax [36]: 570 ng/mL; Tmax [37]: 24 min; Tmax [38]: 15 min; bioavailability [39]: 31%; bioavailability [40]: 41%; Cmax [41]: 32 ng/mL; Cmax [42]: 92 ng/mL; half-life [43]: 36 min; EC50 [44]: 123 nM; Efficacy [45]: 54%; Ki [46]: 275 nM; Ki [47]: 1290 nM; Ki [48]: 245 nM; ED50 [49]: 64 µmol/kg; ED50 [50]: 34 µmol/kg; Activity [51]: inactive; concentration at 0.5 h [52]: 1150 ng/mL; EC50 [53]: 4680 nM; pKb [54]: 6.56; Activity [55]: 36%; Activity [56]: 100%; ED50 [57]: 32 µmol/kg; Cp [58]: 212 ng/mL
